Laboratory results taken from patent publication US9718828B2 (MERCK SHARP & DOHME CORP., priority 2011, dated 2017).
Where a name gives a salt, the structure may show the parent alone. Read-outs that look alike come from different tables or passages of the source.

Biological target: Btk enzyme (His-Btk) (Homo sapiens (Human), UniProt Q06187)
Test: Btk enzyme activity, IMAP fluorescence polarization assay (Assay Method A)
[1] = read-out: EC50 Btk activity values - Assay Method A, IMAP-FP, 60 min pre-incubation, 5 μM ATP, class 100-1000 is given as ≧100 nM-<1 μM

Btk enzyme (His-Btk), sequence (Q06187 whole entry): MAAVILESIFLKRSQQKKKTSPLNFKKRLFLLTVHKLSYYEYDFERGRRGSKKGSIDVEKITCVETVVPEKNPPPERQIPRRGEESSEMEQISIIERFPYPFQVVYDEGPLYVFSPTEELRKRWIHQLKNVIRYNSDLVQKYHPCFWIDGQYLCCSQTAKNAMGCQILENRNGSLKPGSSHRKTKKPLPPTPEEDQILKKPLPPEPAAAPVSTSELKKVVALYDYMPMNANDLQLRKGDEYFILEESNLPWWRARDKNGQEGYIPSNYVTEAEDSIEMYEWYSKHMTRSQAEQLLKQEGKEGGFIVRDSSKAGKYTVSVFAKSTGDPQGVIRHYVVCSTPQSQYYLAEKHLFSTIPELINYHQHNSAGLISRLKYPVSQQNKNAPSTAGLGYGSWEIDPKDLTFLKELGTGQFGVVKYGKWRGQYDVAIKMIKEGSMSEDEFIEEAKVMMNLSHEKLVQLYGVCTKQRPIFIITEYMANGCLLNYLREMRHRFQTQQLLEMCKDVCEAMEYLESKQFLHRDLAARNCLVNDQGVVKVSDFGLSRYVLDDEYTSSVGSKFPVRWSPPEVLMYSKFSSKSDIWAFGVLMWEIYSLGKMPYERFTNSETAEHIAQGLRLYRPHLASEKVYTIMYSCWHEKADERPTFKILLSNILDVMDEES

| Compound | EC50 [1] | also measured |
| --- | --- | --- |
| CCC(=O)N1CCC[C@@H](c2nc(-c3ccc(C(=O)Nc4nc5c(s4)CC(C)CC5)cc3)c3c(N)nccn23)C1 (stereo in doubt) [Example 65, (R)-4-(8-amino-3-(1-propionylpiperidin-3-yl)imidazo[1,5-a]pyrazin-1-yl)-N-(6-methyl-4,5,6,7-tetrahydrobenzo[d]thiazol-2-yl)benzamide] | – | EC50: < 10 nM |
| Nc1nccn2c1c(-c1ccc(C(=O)Nc3ccccn3)cc1)nc2[C@H]1CC[C@H](O)CC1 [Example 1, 4-(8-amino-3-((trans)-4-hydroxycyclohexyl)imidazo[1,5-a]pyrazin-1-yl)-N-(pyridin-2-yl)benzamide] | – | EC50: 10 to 100 nM |
| CCCc1ccnc(NC(=O)c2ccc(-c3nc([C@H]4CC[C@H](O)CC4)n4ccnc(N)c34)cc2)c1 [Example 3, 4-(8-amino-3-((trans)-4-hydroxycyclohexyl)imidazo[1,5-a]pyrazin-1-yl)-N-(4-propylpyridin-2-yl)benzamide] | < 10 nM | – |
| CCc1cnc(NC(=O)c2ccc(-c3nc([C@H]4CC[C@H](O)CC4)n4ccnc(N)c34)cc2)s1 [Example 4, 4-(8-amino-3-((trans)-4-hydroxycyclohexyl)imidazo[1,5-a]pyrazin-1-yl)-N-(5-ethylthiazol-2-yl)benzamide] | < 10 nM | – |
| Cc1ccnc(NC(=O)c2ccc(-c3nc([C@H]4CC[C@H](O)CC4)n4ccnc(N)c34)cc2)c1 [Example 5, 4-(8-amino-3-((trans)-4-hydroxycyclohexyl)imidazo[1,5-a]pyrazin-1-yl)-N-(4-methylpyridin-2-yl)benzamide] | < 10 nM | – |
| CC(C)c1ccnc(NC(=O)c2ccc(-c3nc([C@H]4CC[C@H](O)CC4)n4ccnc(N)c34)cc2)c1 [Example 6, 4-(8-amino-3-((trans)-4-hydroxycyclohexyl)imidazo[1,5-a]pyrazin-1-yl)-N-(4-isopropylpyridin-2-yl)benzamide] | < 10 nM | – |
| Nc1nccn2c1c(-c1ccc(C(=O)Nc3cc(C4CC4)ccn3)cc1)nc2[C@H]1CC[C@H](O)CC1 [Example 7, 4-(8-amino-3-((trans)-4-hydroxycyclohexyl)imidazo[1,5-a]pyrazin-1-yl)-N-(4-cyclopropylpyridin-2-yl)benzamide] | < 10 nM | – |
| Nc1nccn2c1c(-c1ccc(C(=O)Nc3nc4c(s3)CCCC4)cc1)nc2[C@H]1CC[C@H](O)CC1 [Example 8, 4-(8-amino-3-((trans)-4-hydroxycyclohexyl)imidazo[1,5-a]pyrazin-1-yl)-N-(4,5,6,7-tetrahydrobenzo[d]thiazol-2-yl)benzamide] | < 10 nM | – |
| COc1cc(-c2nc([C@H]3CC[C@H](O)CC3)n3ccnc(N)c23)ccc1C(=O)Nc1ccccn1 [Example 9, 4-(8-amino-3-((trans)-4-hydroxycyclohexyl)imidazo[1,5-a]pyrazin-1-yl)-2-methoxy-N-(pyridin-2-yl)benzamide] | – | EC50: 10 to 100 nM |
| CCCc1ccnc(NC(=O)c2ccc(-c3nc([C@H]4CC[C@H](O)CC4)n4ccnc(N)c34)c(C)c2)c1 [Example 10, 4-(8-amino-3-((trans)-4-hydroxycyclohexyl)imidazo[1,5-a]pyrazin)-3-methyl-N-(4-propylpyridin-2-yl)benzamide] | < 10 nM | – |
| CCCc1ccnc(NC(=O)c2ccc(-c3nc([C@H]4CC[C@H](O)CC4)n4ccnc(N)c34)cc2OC)c1 [Example 11, 4-(8-amino-3-((trans)-4-hydroxycyclohexyl)imidazo[1,5-a]pyrazin-1-yl)-2-methoxy-N-(4-propylpyridin-2-yl)benzamide] | < 10 nM | – |
| Nc1nccn2c1c(-c1ccc(C(=O)Nc3ccccn3)c(F)c1)nc2[C@H]1CC[C@H](O)CC1 [Example 12, 4-(8-amino-3-((trans)-4-hydroxycyclohexyl)imidazo[1,5-a]pyrazin-1-yl)-2-fluoro-N-(pyridin-2-yl)benzamide] | – | EC50: 100 to 1000 nM |
| CCCc1ccnc(NC(=O)c2ccc(-c3nc([C@H]4CC[C@H](O)CC4)n4ccnc(N)c34)cc2F)c1 [Example 13, 4-(8-amino-3-((trans)-4-hydroxycyclohexyl)imidazo[1,5-a]pyrazin-1-yl)-2-fluoro-N-(4-propylpyridin-2-yl)benzamide] | < 10 nM | – |
| CC1CCc2nc(NC(=O)c3ccc(-c4nc([C@H]5CC[C@H](O)CC5)n5ccnc(N)c45)cc3)sc2C1 (stereo partly drawn) [Example 14, 4-(8-amino-3-((trans)-4-hydroxycyclohexyl)imidazo[1,5-a]pyrazin-1-yl)-N-(6-methyl-4,5,6,7-tetrahydrobenzo[d]thiazol-2-yl)benzamide] | < 10 nM | – |
| Nc1nccn2c1c(-c1ccc(C(=O)Nc3nc4c(s3)COCC4)cc1)nc2[C@H]1CC[C@H](O)CC1 [Example 15, 4-(8-amino-3-((trans)-4-hydroxycyclohexyl)imidazo[1,5-a]pyrazin-1-yl)-N-(6,7-dihydro-4H-pyrano[4,3-d]thiazol-2-yl)benzamide] | – | EC50: 10 to 100 nM |
| Cc1cc(C(=O)Nc2ccccn2)ccc1-c1nc([C@H]2CC[C@H](O)CC2)n2ccnc(N)c12 [Example 16] | – | EC50: 100 to 1000 nM |
| Nc1nccn2c1c(-c1ccc(C(=O)Nc3nc4c(s3)CNCC4)cc1)nc2[C@H]1CC[C@H](O)CC1 [Example 17, 4-(8-amino-3-((trans)-4-hydroxycyclohexyl)imidazo[1,5-a]pyrazin-1-yl)-N-(4,5,6,7-tetrahydrothiazolo[5,4-c]pyridin-2-yl)benzamide] | – | EC50 (read-out: EC50 Btk activity values - Assay Method A, IMAP-FP, 60 min pre-incubation, 5 μM ATP): ≥ 1000 nM |

Continued, in another order:

| EC50 [1] | Compound | also measured |
| --- | --- | --- |
| < 10 nM | C[C@H]1CC[C@@H](c2nc(-c3ccc(C(=O)Nc4cc(C5CC5)ccn4)cc3)c3c(N)nccn23)CN1C(=O)C1CCC1 (relative stereo) [Example 197, 4-(8-amino-3-((cis)-1-(cyclobutanecarbonyl)-6-methylpiperidin-3-yl)imidazo[1,5-a]pyrazin-1-yl)-N-(4-cyclopropylpyridin-2-yl)benzamide, TFA salt] | – |
| < 10 nM | CSCCC(=O)N1C[C@H](c2nc(-c3ccc(C(=O)Nc4cc(C5CC5)ccn4)cc3)c3c(N)nccn23)CC[C@@H]1C (relative stereo) [Example 198, 4-(8-amino-3-((cis)-6-methyl-1-(3-(methylthio)propanoyl)-piperidin-3-yl)imidazo[1,5-a]pyrazin-1-yl)-N-(4-cyclopropylpyridin-2-yl)benzamide, TFA salt] | – |
| < 10 nM | CCOC(=O)N1C[C@H](c2nc(-c3ccc(C(=O)Nc4cc(C5CC5)ccn4)cc3)c3c(N)nccn23)CC[C@@H]1C (relative stereo) [Example 199, (cis)-ethyl 5-(8-amino-1-(4-(4-cyclopropylpyridin-2-ylcarbamoyl)phenyl)imidazo [1,5-a]pyrazin-3-yl)-2-methylpiperidine-1-carboxylate, TFA salt] | – |
| < 10 nM | CCC(=O)C(=O)N1C[C@H](c2nc(-c3ccc(C(=O)Nc4cc(C(F)(F)F)ccn4)cc3)c3c(N)nccn23)CC[C@@H]1C (relative stereo) [Example 200, 4-(8-amino-3-((cis)-6-methyl-1-(2-oxobutanoyl)piperidin-3-yl)imidazo[1,5-a]pyrazin-1-yl)-N-(4-(trifluoromethyl)-pyridin-2-yl)benzamide, TFA salt] | – |
| < 10 nM | CCNC(=O)N1C[C@H](c2nc(-c3ccc(C(=O)Nc4cc(C(F)(F)F)ccn4)cc3)c3c(N)nccn23)CC[C@@H]1C (relative stereo) [Example 201, (cis)-5-(8-amino-1-(4-(4-(trifluoromethyl)pyridin-2-ylcarbamoyl)phenyl)imidazo [1,5-a]pyrazin-3-yl)-N-ethyl-2-methylpiperidine-1-carboxamide, TFA salt] | – |
| < 10 nM | C[C@H]1CC[C@@H](c2nc(-c3ccc(C(=O)Nc4cc(C(F)(F)F)ccn4)cc3)c3c(N)nccn23)CN1C(=O)C1CC1 (relative stereo) [Example 202, 4-(8-amino-3-((cis)-1-(cyclopropanecarbonyl)-6-methylpiperidin-3-yl)imidazo[1,5-a]pyrazin-1-yl)-N-(4-(trifluoromethyl)pyridin-2-yl)benzamide, TFA salt] | – |
| < 10 nM | C[C@H]1CC[C@@H](c2nc(-c3ccc(C(=O)Nc4ccccn4)cc3)c3c(N)nccn23)CN1C(=O)C1CC(F)(F)C1 (relative stereo) [Example 203, 4-(8-amino-3-((cis)-1-(3,3-difluorocyclobutanecarbonyl)-6-methylpiperidin-3-yl)imidazo[1,5-a]pyrazin-1-yl)-N-(pyridin-2-yl)benzamide, TFA salt] | – |
| < 10 nM | C[C@H]1CC[C@@H](c2nc(-c3ccc(C(=O)Nc4ccccn4)cc3)c3c(N)nccn23)CN1C(=O)C1CCC1 (relative stereo) [Example 204, 4-(8-amino-3-((cis)-1-(cyclobutanecarbonyl)-6-methylpiperidin-3-yl)imidazo[1,5-a]pyrazin-1-yl)-N-(pyridin-2-yl)benzamide, TFA salt] | – |
| < 10 nM | CC(C)C(=O)N1C[C@H](c2nc(-c3ccc(C(=O)Nc4ccccn4)cc3)c3c(N)nccn23)CC[C@@H]1C (relative stereo) [Example 205, 4-(8-amino-3-((cis)-1-isobutyryl-6-methylpiperidin-3-yl)imidazo[1,5-a]pyrazin-1-yl)-N-(pyridin-2-yl)benzamide, TFA salt] | – |
| < 10 nM | CCOCCC(=O)N1C[C@H](c2nc(-c3ccc(C(=O)Nc4ccccn4)cc3)c3c(N)nccn23)CC[C@@H]1C (relative stereo) [Example 206, 4-(8-amino-3-((cis)-1-(3-ethoxypropanoyl)-6-methylpiperidin-3-yl)imidazo[1,5-a]pyrazin-1-yl)-N-(pyridin-2-yl)benzamide, TFA salt] | – |
| < 10 nM | CCC(=O)N1C[C@H](c2nc(-c3ccc(C(=O)Nc4ccccn4)cc3)c3c(N)nccn23)CC[C@@H]1C (relative stereo) [Example 207, 4-(8-amino-3-((cis)-6-methyl-1-propionylpiperidin-3-yl)imidazo[1,5-a]pyrazin-1-yl)-N-(pyridin-2-yl)benzamide, TFA salt] | – |
| < 10 nM | Nc1nccn2c1c(-c1ccc(C(=O)Nc3cc(C(F)(F)F)ccn3)cc1)nc2[C@H]1CC[C@H](O)CC1 [Example 2, 4-(8-amino-3-((trans)-4-hydroxycyclohexyl)imidazo[1,5-a]pyrazin-1-yl)-N-(4-(trifluoromethyl)pyridin-2-yl)benzamide] | – |
